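Protocol summary: plate cells (96-well), add compound at 5 concentrations, incubate 48 h, interpolate endpoints linearly. GI50: concentration for 50% inhibition of growth.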 Activity calls are given as the source filed them. Rule as the data show it: active = GI50 up to about 1.1 µM and inactive = higher.
Experiments:
Test in all cases: growth of human tumour cells (NCI), 48 h
HOP-92 = tested on: HOP-92
NCI-H522 = tested on: NCI-H522
ACHN = tested on: ACHN
EKVX = tested on: EKVX
RXF 393 = tested on: RXF 393
A549 = tested on: A549
CCRF-CEM = tested on: CCRF-CEM
UACC-257 = tested on: UACC-257
786-0 = tested on: 786-0
NCI-H226 = tested on: NCI-H226
SNB-19 = tested on: SNB-19
SR = tested on: SR
M14 = tested on: M14
NCI-H460 = tested on: NCI-H460
SF-539 = tested on: SF-539
IGROV-1 = tested on: IGROV-1
OVCAR-4 = tested on: OVCAR-4
DU-145 = tested on: DU-145
MDA-MB-435 = tested on: MDA-MB-435
HT-29 = tested on: HT-29
HCC 2998 = tested on: HCC 2998
BT-549 = tested on: BT-549
HOP-62 = tested on: HOP-62
SN12C = tested on: SN12C
SW-620 = tested on: SW-620
HCT-15 = tested on: HCT-15
SNB-75 = tested on: SNB-75
SK-MEL-5 = tested on: SK-MEL-5
U-251 = tested on: U-251
NCI/ADR-RES = tested on: NCI/ADR-RES
T47D = tested on: T47D
KM12 = tested on: KM12
COLO 205 = tested on: COLO 205
OVCAR-5 = tested on: OVCAR-5
OVCAR-8 = tested on: OVCAR-8
Malme-3M = tested on: Malme-3M
TK-10 = tested on: TK-10
CAKI-1 = tested on: CAKI-1
MCF7 = tested on: MCF7
MOLT-4 = tested on: MOLT-4
OVCAR-3 = tested on: OVCAR-3
UO-31 = tested on: UO-31
NCI-H23 = tested on: NCI-H23
SK-MEL-28 = tested on: SK-MEL-28
SK-OV-3 = tested on: SK-OV-3
SF-295 = tested on: SF-295
MDA-N = tested on: MDA-N
Hs-578T = tested on: Hs-578T
UACC-62 = tested on: UACC-62
LOX IMVI = tested on: LOX IMVI
MDA-MB-231 = tested on: MDA-MB-231
A498 = tested on: A498
PC-3 = tested on: PC-3
SK-MEL-2 = tested on: SK-MEL-2
SF-268 = tested on: SF-268
HCT-116 = tested on: HCT-116
HL-60 = tested on: HL-60
RPMI-8226 = tested on: RPMI-8226
K562 = tested on: K562

For `CCOP(=O)(OCC)C(C(=O)OC)C(=O)C(=O)Nc1cccc(O)c1` (stereo not drawn), the GI50 (HOP-92) was > 100 µM (inactive), the GI50 (NCI-H522) was > 100 µM (inactive) and the GI50 (ACHN) was > 100 µM (inactive). For the same molecule, the GI50 (EKVX) was > 100 µM (inactive), the GI50 (RXF 393) was > 100 µM (inactive) and the GI50 (A549) was > 100 µM (inactive). For the same molecule, the GI50 (CCRF-CEM) was > 100 µM (inactive), the GI50 (UACC-257) was > 100 µM (inactive) and the GI50 (786-0) was > 100 µM (inactive). For the same molecule, the GI50 (NCI-H226) was > 100 µM (inactive), the GI50 (SNB-19) was > 100 µM (inactive) and the GI50 (SR) was > 100 µM (inactive). The GI50 (M14) was > 100 µM (inactive), the GI50 (NCI-H460) was > 100 µM (inactive) and the GI50 (SF-539) was > 100 µM (inactive). The GI50 (IGROV-1) was > 100 µM (inactive), the GI50 (OVCAR-4) was > 100 µM (inactive) and the GI50 (DU-145) was > 100 µM (inactive). The GI50 (MDA-MB-435) was > 100 µM (inactive), the GI50 (HT-29) was > 100 µM (inactive) and the GI50 (HCC 2998) was > 100 µM (inactive). For the same molecule, the GI50 (BT-549) was > 100 µM (inactive), the GI50 (HOP-62) was > 100 µM (inactive) and the GI50 (SN12C) was > 100 µM (inactive). The GI50 (SW-620) was > 100 µM (inactive), the GI50 (HCT-15) was greater than 100 µM and the GI50 (SNB-75) was > 100 µM (inactive). For the same molecule, the GI50 (SK-MEL-5) was > 100 µM (inactive), the GI50 (U-251) was > 100 µM (inactive) and the GI50 (NCI/ADR-RES) was > 100 µM (inactive). The GI50 (T47D) was > 100 µM (inactive), the GI50 (KM12) was > 100 µM (inactive) and the GI50 (COLO 205) was > 100 µM (inactive). For the same molecule, the GI50 (OVCAR-5) was > 100 µM (inactive), the GI50 (OVCAR-8) was > 100 µM (inactive) and the GI50 (Malme-3M) was > 100 µM (inactive). For the same molecule, the GI50 (TK-10) was > 100 µM (inactive), the GI50 (CAKI-1) was > 100 µM (inactive) and the GI50 (MCF7) was > 100 µM (inactive). For the same molecule, the GI50 (MOLT-4) was > 100 µM (inactive), the GI50 (OVCAR-3) was > 100 µM (inactive) and the GI50 (UO-31) was > 100 µM (inactive). For the same molecule, the GI50 (NCI-H23) was > 100 µM (inactive), the GI50 (SK-MEL-28) was > 100 µM (inactive) and the GI50 (SK-OV-3) was > 100 µM (inactive). For the same molecule, the GI50 (SF-295) was > 100 µM (inactive), the GI50 (MDA-N) was > 100 µM (inactive) and the GI50 (Hs-578T) was > 100 µM (inactive). The GI50 (UACC-62) was > 100 µM (inactive), the GI50 (LOX IMVI) was > 100 µM (inactive) and the GI50 (MDA-MB-231) was > 100 µM (inactive). For the same molecule, the GI50 (A498) was > 100 µM (inactive), the GI50 (PC-3) was > 100 µM (inactive) and the GI50 (SK-MEL-2) was > 100 µM (inactive). The GI50 (SF-268) was > 100 µM (inactive) and the GI50 (HCT-116) was > 100 µM (inactive).

In the case of `CCOC(=O)N1CC2(C(=O)OC)C=CC1C(C(=O)OC)C2` (stereo not drawn), the GI50 (NCI-H522) was > 100 µM (inactive), the GI50 (ACHN) was > 100 µM (inactive) and the GI50 (EKVX) was > 100 µM (inactive). For the same molecule, the GI50 (RXF 393) was > 100 µM (inactive), the GI50 (A549) was > 100 µM (inactive) and the GI50 (CCRF-CEM) was > 100 µM (inactive). The GI50 (UACC-257) was > 100 µM (inactive), the GI50 (786-0) was > 100 µM (inactive) and the GI50 (NCI-H226) was > 100 µM (inactive). The GI50 (HL-60) was > 100 µM (inactive), the GI50 (RPMI-8226) was > 100 µM (inactive) and the GI50 (SNB-19) was > 100 µM (inactive). The GI50 (SR) was > 100 µM (inactive), the GI50 (M14) was > 100 µM (inactive) and the GI50 (NCI-H460) was > 100 µM (inactive). For the same molecule, the GI50 (SF-539) was > 100 µM (inactive), the GI50 (K562) was > 100 µM (inactive) and the GI50 (IGROV-1) was > 100 µM (inactive). For the same molecule, the GI50 (OVCAR-4) was > 100 µM (inactive), the GI50 (DU-145) was > 100 µM (inactive) and the GI50 (MDA-MB-435) was > 100 µM (inactive). For the same molecule, the GI50 (HCC 2998) was > 100 µM (inactive), the GI50 (BT-549) was > 100 µM (inactive) and the GI50 (HOP-62) was > 100 µM (inactive). For the same molecule, the GI50 (SN12C) was > 100 µM (inactive), the GI50 (SW-620) was > 100 µM (inactive) and the GI50 (HCT-15) was greater than 100 µM. The GI50 (SNB-75) was > 100 µM (inactive), the GI50 (SK-MEL-5) was > 100 µM (inactive) and the GI50 (U-251) was > 100 µM (inactive). For the same molecule, the GI50 (NCI/ADR-RES) was > 100 µM (inactive), the GI50 (T47D) was > 100 µM (inactive) and the GI50 (KM12) was > 100 µM (inactive). For the same molecule, the GI50 (COLO 205) was > 100 µM (inactive), the GI50 (OVCAR-5) was > 100 µM (inactive) and the GI50 (OVCAR-8) was > 100 µM (inactive). For the same molecule, the GI50 (Malme-3M) was > 100 µM (inactive), the GI50 (TK-10) was > 100 µM (inactive) and the GI50 (CAKI-1) was > 100 µM (inactive). For the same molecule, the GI50 (MCF7) was > 100 µM (inactive), the GI50 (MOLT-4) was > 100 µM (inactive) and the GI50 (OVCAR-3) was > 100 µM (inactive). For the same molecule, the GI50 (UO-31) was > 100 µM (inactive), the GI50 (NCI-H23) was > 100 µM (inactive) and the GI50 (SK-MEL-28) was > 100 µM (inactive). For the same molecule, the GI50 (SK-OV-3) was > 100 µM (inactive), the GI50 (SF-295) was > 100 µM (inactive) and the GI50 (MDA-N) was > 100 µM (inactive). The GI50 (Hs-578T) was > 100 µM (inactive), the GI50 (UACC-62) was > 100 µM (inactive) and the GI50 (LOX IMVI) was > 100 µM (inactive). The GI50 (MDA-MB-231) was > 100 µM (inactive), the GI50 (A498) was > 100 µM (inactive) and the GI50 (PC-3) was > 100 µM (inactive). For the same molecule, the GI50 (SK-MEL-2) was > 100 µM (inactive), the GI50 (SF-268) was > 100 µM (inactive) and the GI50 (HCT-116) was > 100 µM (inactive).

From ChEMBL document CHEMBL1201862, “PubChem BioAssay data set” (2004)
